US10703748B2, “Diazanaphthalen-3-yl carboxamides and preparation and use thereof” (Samumed, LLC, priority 2017, dated 2020)
Like-named read-outs stand apart in the source and are kept apart here.

Columns and labels:
DYRK1A kinase = DYRK1A kinase (Homo sapiens, UniProt Q13627); assay: DYRK1A kinase activity (Ser/Thr 18 peptide Z-lyte FRET assay); type: biochemical; details: recombinant DYRK1A, 30 μM ATP, one hour at room temperature;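 further: kinase activity read as coumarin/fluorescein emission ratio after development step, with unphosphorylated and phosphorylated peptide forms setting 0% and 100% controls, values from dose-response curves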
GSK3β kinase = GSK3β kinase (Homo sapiens, UniProt P49841); assay: GSK3β kinase activity (Ser/Thr 09 peptide Z-lyte FRET assay); type: biochemical; details: recombinant kinase, 46 μM ATP, one hour at room temperature; read-out: EC50
[1] = tested on: Tau phosphorylation at Ser396 (pSer396); assay: Tau phosphorylation at Ser396 (pSer396) in SH-SY5Y cells, ELISA / western blot; type: cell-based, human; details: SH-SY5Y cells, overnight (16-18 h), read-out: pSer396 Tau EC50;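 further: decrease in pSer396 Tau measured in lysates of treated cells by colorimetric ELISA or chemiluminescent western blot, same pSer396 antibody for both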
Experimental: Two days before treatment, cells were seeded onto 96 well plates at 5×10^4 cells/well.
The above synthesized compounds were screened using the cell assay procedure to assess decrease Tau phosphorylation at Ser396 (pSer396) described below.
Cells were lysed with RIPA buffer complemented with phosphatase and protease inhibitors then lysates were spun down at 12,000 g for 10 min to remove any cellular debris.

[2] = tested on: secreted cytokines TNFα, IL-6 and KC-GRO; assay: Secreted cytokines in Lipopolysaccharide-stimulated BV-2 cells (Table 9 does not say which cytokine); type: cell-based, mouse; details: read-out: EC50
[3] = tested on: SW480 colon carcinoma cells; assay: Cell viability assay (CellTiter-Glo); details: for inhibition at 10 µM: SW480, read-out: percent inhibition at 10 μM
[4] = tested on: Wnt-responsive Sp5-Luc reporter in SW480 colon carcinoma cells; assay: Screening assay for Wnt activity (Sp5-Luc reporter gene assay); details: for inhibition at 10 µM: SW480, read-out: percent inhibition at 10 μM
IL-6 = IL-6 inhibition in LPS-stimulated human peripheral blood mononuclear cells (HTRF); details: for inhibition at 10 µM: read-out: percentage in parentheses after EC50 >10
[5] = tested on: α-smooth muscle actin (aSMA) positive LL29 cells; assay: Inhibition of the fibrotic process: αSMA staining in TGF-β1 treated LL29 fibroblasts from IPF patients; details: for inhibition at 10 µM: read-out: percentage in parentheses after EC50 >10

Sequence of GSK3β kinase (P49841 whole entry): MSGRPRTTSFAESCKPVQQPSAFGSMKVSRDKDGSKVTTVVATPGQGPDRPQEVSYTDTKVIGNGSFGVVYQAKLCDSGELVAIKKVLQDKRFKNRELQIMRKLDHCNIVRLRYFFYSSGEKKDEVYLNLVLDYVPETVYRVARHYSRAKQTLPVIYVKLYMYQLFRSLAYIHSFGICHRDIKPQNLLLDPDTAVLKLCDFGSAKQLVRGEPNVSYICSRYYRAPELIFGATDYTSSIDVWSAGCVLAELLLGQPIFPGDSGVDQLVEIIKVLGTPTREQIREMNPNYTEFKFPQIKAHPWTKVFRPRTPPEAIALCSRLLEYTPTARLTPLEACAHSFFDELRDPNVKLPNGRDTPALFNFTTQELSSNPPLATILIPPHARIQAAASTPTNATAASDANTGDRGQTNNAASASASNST

| Compound | EC50 (DYRK1A kinase) | EC50 (GSK3β kinase) | EC50 ([1]; Homo sapiens) | EC50 ([2]; Mus musculus, BV-2, 5 h) | EC50 ([3]; Homo sapiens, SW480, 96 h) | EC50 ([4]; Homo sapiens, SW480) | EC50 (IL-6; Homo sapiens, PBMC, 22 h) | EC50 [1] | EC50 ([2]; BV-2 cells, LPS 250 ng/mL 5 hours, compounds overnight, 10 μM to […], cytokine not named in Table 9) | EC50 ([3]; SW480 cells, four days, CellTiter-Glo) | EC50 ([4]; SW480 Sp5-Luc reporter cells, 36 to 48 hours) | EC50 (IL-6; huPBMCs, LPS 50 ng/mL, 22 hours, curves starting from 10 μM) | percentage in parentheses after EC50 >10 (IL-6; huPBMCs, LPS, given beside >10 μM, meaning not given) | EC50 ([5]; Homo sapiens, Fibroblast, 96 h) | inhibition at 10 µM ([3]; Homo sapiens) | inhibition at 10 µM ([4]; Homo sapiens) | inhibition at 10 µM ([5]; Homo sapiens, Fibroblast) | inhibition at 10 µM (IL-6; Homo sapiens, PBMC) | percent inhibition at 10 μM ([4]; at 10 μM, given for EC50 of >10 μM, SW480 Sp5-Luc reporter) | EC50 ([5]; LL29 fibroblasts from IPF patients, TGF-β1 20 ng/mL, 4 days, curves from 10 μM to 0.94 nM) |
| --- | --- | --- | --- | --- | --- | --- | --- | --- | --- | --- | --- | --- | --- | --- | --- | --- | --- | --- | --- | --- |
| Cn1cc(-c2ccc3cnc(NC(=O)C4CC4)cc3n2)cn1 [Compound 2, N-(2-(1-Methyl-1H-pyrazol-4-yl)-1,6-naphthyridin-7-yl) cyclopropanecarboxamide] | 18 nM | 20 nM | 396 nM | 1700 nM | 2470 nM | 2940 nM | 3160 nM | – | – | – | – | – | – | 677 nM | – | – | – | – | – | – |
| Cn1cc(-c2ccc3cnc(NC(=O)[C@H]4CC[C@H](N5CCOCC5)CC4)cc3n2)cn1 [Compound 5, trans-N-(2-(1-methyl-1H-pyrazol-4-yl)-1,6-naphthyridin-7-yl)-4-morpholinocyclohexane-1-carboxamide] | 7 nM | 138 nM | 2000 nM | 400 nM | > 10000 nM | > 10000 nM | 3300 nM | – | – | – | – | – | – | > 10000 nM | 39.9% | 47.9% | 9% | – | – | – |
| Cn1cc(-c2ccc3cnc(NC(=O)C4CCNCC4)cc3n2)cn1 [Compound 11, N-(2-(1-Methyl-1H-pyrazol-4-yl)-1,6-naphthyridin-7-yl)piperidine-4-carboxamide] | 14 nM | 101 nM | 3500 nM | 926 nM | 5800 nM | 3190 nM | 2830 nM | – | – | – | – | – | – | 2540 nM | – | – | – | – | – | – |
| CC(C)CN1CCC(C(=O)Nc2cc3nc(-c4cnn(C)c4)ccc3cn2)CC1 [Compound 16, 1-Isobutyl-N-(2-(1-methyl-1H-pyrazol-4-yl)-1,6-naphthyridin-7-yl) piperidine-4-carboxamide] | 40 nM | 277 nM | 923 nM | 111 nM | > 10000 nM | 1540 nM | > 10000 nM | – | – | – | – | – | – | 251 nM | 45.1% | – | – | 52.2% | – | – |
| Cn1cc(-c2ccc3cnc(NC(=O)[C@H]4CC[C@H](N)CC4)cc3n2)cn1 [Compound 41, trans-4-amino-N-(2-(1-methyl-1H-pyrazol-4-yl)-1,6-naphthyridin-7-yl)cyclohexane-1-carboxamide] | 10 nM | 429 nM | > 10000 nM | 408 nM | > 10000 nM | 1310 nM | 2770 nM | – | – | – | – | – | – | 663 nM | 31.8% | – | – | – | – | – |
| CN(CC(=O)Nc1cc2nc(-c3cnn(C)c3)ccc2cn1)C1CCC1 [Compound 56, 2-(Cyclobutyl(methyl)amino)-N-(2-(1-methyl-1H-pyrazol-4-yl)-1,6-naphthyridin-7-yl)acetamide] | 21 nM | 59 nM | 1500 nM | 1140 nM | > 10000 nM | 3390 nM | > 10000 nM | – | – | – | – | – | – | 5180 nM | 35% | – | – | 6.3% | – | – |
| Cn1cc(-c2ccc3cnc(NC(=O)[C@H]4CCCN4)cc3n2)cn1 [Compound 62, (R)—N-(2-(1-Methyl-1H-pyrazol-4-yl)-1,6-naphthyridin-7-yl)pyrrolidine-2-carboxamide] | 56 nM | 9 nM | 699 nM | 557 nM | > 10000 nM | > 10000 nM | 4830 nM | – | – | – | – | – | – | > 10000 nM | 38.3% | 43.1% | 8.3% | – | – | – |
| Cn1cc(-c2ccc3cnc(NC(=O)C4CCN(S(C)(=O)=O)CC4)cc3n2)cn1 [Compound 71, N-(2-(1-Methyl-1H-pyrazol-4-yl)-1,6-naphthyridin-7-yl)-1-(methylsulfonyl)piperidine-4-carboxamide] | 3 nM | 18 nM | 426 nM | 93 nM | > 10000 nM | 559 nM | 5490 nM | – | – | – | – | – | – | 420 nM | 40.7% | – | – | – | – | – |
| O=C(Nc1cc2nc(-c3cnn4c3CN(CCF)CC4)ccc2cn1)C1CCC(F)(F)CC1 [Compound 317] | – | – | – | – | – | – | – | 35 nM | 66 nM | 3530 nM | > 10000 nM | > 10000 nM | 8.0% | – | – | – | – | – | 50.0% | 935 nM |
| O=C(Nc1ncc2ccc(-c3cncc(NCC4(F)CNC4)n3)cc2n1)C1CC1 [Compound 1777, N-(7-(6-(((3-Fluoroazetidin-3-yl)methyl)amino)pyrazin-2-yl)quinazolin-2-yl)cyclopropanecarboxamide] | 5 nM | 98 nM | 10000 nM | – | > 10000 nM | > 10000 nM | > 10000 nM | – | – | – | – | – | – | > 10000 nM | 27.6% | 35.4% | 41.1% | 2.4% | – | – |
| O=C(Nc1ncc2ccc(-c3cncc(N[C@H]4CCNC[C@@H]4F)n3)cc2n1)C1CC1 [Compound 1785, N-(7-(6-(((3S,4S)-3-Fluoropiperidin-4-yl)amino)pyrazin-2-yl)quinazolin-2-yl)cyclopropanecarboxamide] | 7 nM | 135 nM | 5660 nM | – | > 10000 nM | 4270 nM | > 10000 nM | – | – | – | – | – | – | 4000 nM | 34.3% | – | – | 8.9% | – | – |
| CC(C)CN1CCC(CC(=O)Nc2cc3cc(-c4cnn(C)c4)ncc3cn2)C1 (stereo not drawn) [Compound 3749, 2-(1-Isobutylpyrrolidin-3-yl)-N-(6-(1-methyl-1H-pyrazol-4-yl)-2,7-naphthyridin-3-yl)acetamide] | 10 nM | 6 nM | 87 nM | – | 3610 nM | 92 nM | 8800 nM | – | – | – | – | – | – | 167 nM | – | – | – | – | – | – |

Now from value to compound, other results behind:

| EC50 (DYRK1A kinase) | EC50 (GSK3β kinase) | EC50 ([1]; Homo sapiens) | EC50 ([2]; Mus musculus, BV-2, 5 h) | EC50 ([3]; Homo sapiens, SW480, 96 h) | EC50 ([4]; Homo sapiens, SW480) | EC50 (IL-6; Homo sapiens, PBMC, 22 h) | EC50 [1] | EC50 ([2]; BV-2 cells, LPS 250 ng/mL 5 hours, compounds overnight, 10 μM to […], cytokine not named in Table 9) | EC50 ([3]; SW480 cells, four days, CellTiter-Glo) | EC50 ([4]; SW480 Sp5-Luc reporter cells, 36 to 48 hours) | EC50 (IL-6; huPBMCs, LPS 50 ng/mL, 22 hours, curves starting from 10 μM) | percentage in parentheses after EC50 >10 (IL-6; huPBMCs, LPS, given beside >10 μM, meaning not given) | Compound | EC50 ([5]; Homo sapiens, Fibroblast, 96 h) | inhibition at 10 µM ([3]; Homo sapiens) | inhibition at 10 µM ([4]; Homo sapiens) | inhibition at 10 µM ([5]; Homo sapiens, Fibroblast) | inhibition at 10 µM (IL-6; Homo sapiens, PBMC) | percent inhibition at 10 μM ([4]; at 10 μM, given for EC50 of >10 μM, SW480 Sp5-Luc reporter) | EC50 ([5]; LL29 fibroblasts from IPF patients, TGF-β1 20 ng/mL, 4 days, curves from 10 μM to 0.94 nM) |
| --- | --- | --- | --- | --- | --- | --- | --- | --- | --- | --- | --- | --- | --- | --- | --- | --- | --- | --- | --- | --- |
| 16 nM | 275 nM | > 10000 nM | – | 2260 nM | 1530 nM | > 10000 nM | – | – | – | – | – | – | Cn1cc(-c2cc3cc(NC(=O)c4ccnc(OC5CCNCC5)c4)ncc3cn2)cn1 [Compound 3780, N-(6-(1-Methyl-1H-pyrazol-4-yl)-2,7-naphthyridin-3-yl)-2-(piperidin-4-yloxy)isonicotinamide] | 4760 nM | – | – | – | 6.7% | – | – |
| 59 nM | 115 nM | 989 nM | – | 3540 nM | 1240 nM | > 10000 nM | – | – | – | – | – | – | CCN(CC)CC(=O)Nc1cc2cc(-c3cnn(C)c3CN3CCCCC3)ncc2cn1 [Compound 3910, 2-(Diethylamino)-N-(6-(1-methyl-5-(piperidin-1-ylmethyl)-1H-pyrazol-4-yl)-2,7-naphthyridin-3-yl)acetamide] | 1070 nM | – | – | – | 4.2% | – | – |
| 6 nM | 79 nM | 571 nM | – | 2380 nM | 1340 nM | > 10000 nM | – | – | – | – | – | – | Cn1ncc(-c2cc3cc(NC(=O)c4ccnc(N5CCOCC5)c4)ncc3cn2)c1CN1CCOCC1 [Compound 3941, N-(6-(1-methyl-5-(morpholinomethyl)-1H-pyrazol-4-yl)-2,7-naphthyridin-3-yl)-2-morpholinoisonicotinamide] | 1190 nM | – | – | – | 5.5% | – | – |
| 37 nM | 135 nM | 1540 nM | – | > 10000 nM | > 10000 nM | > 10000 nM | – | – | – | – | – | – | Cc1nnc(-c2cc3cc(NC(=O)C4CCN(C(=O)c5ccccc5)CC4)ncc3cn2)s1 [Compound 4346, 1-Benzoyl-N-(6-(5-methyl-1,3,4-thiadiazol-2-yl)-2,7-naphthyridin-3-yl) piperidine-4-carboxamide] | > 10000 nM | 12.2% | 3.8% | 21.4% | 2.4% | – | – |
| 2 nM | 1 nM | 37 nM | – | 799 nM | 383 nM | 3090 nM | – | – | – | – | – | – | O=C(Nc1cc2cc(-c3cncc(NCC4(F)CNC4)n3)ncc2cn1)C1CC1 [Compound 4498, N-(6-(6-(((3-Fluoroazetidin-3-yl)methyl)amino)pyrazin-2-yl)-2,7-naphthyridin-3-yl)cyclopropanecarboxamide] | 436 nM | – | – | – | – | – | – |
| 6 nM | 161 nM | 10000 nM | – | 2700 nM | 3230 nM | > 10000 nM | – | – | – | – | – | – | Cn1cc(-c2ccc3cnc(NC(=O)c4ccc(OC5CCNCC5)cc4)nc3c2)nn1 [Compound 4573, N-(7-(1-Methyl-1H-1,2,3-triazol-4-yl)quinazolin-2-yl)-4-(piperidin-4-yloxy) benzamide] | > 10000 nM | – | – | 9.3% | 9.6% | – | – |
